Experimental data published in patent US11247994B2, “6-dithio-substituted-2′-deoxyguanosine compound, preparation method thereof and use thereof” (ZHEJIANG UNIVERSITY, priority 2018, dated 2022).

Legend:
[1] = test system: human colon cancer cell line HCT116 subcutaneous transplanted tumor; test: Tumor-bearing test in nude mice, HCT116 subcutaneous transplanted tumor (tumor volume, TUNEL); type: in vivo; settings: HCT116 model
Source text: Tumor-Bearing Test in Nude Mice—Inhibitory Effect of 6-Dithio-Substituted-2′-Deoxyguanosine Derivatives on the Growth of Subcutaneous Transplanted Tumor Tissue in Nude Mice
1) Tumor-Bearing Mouse Model of Human Colon Cancer Cell Line HCT116
(§1) We took human colon cancer cell line HCT116 as the research object, and established a subcutaneous transplanted tumor model of human colon cancer in 32 immunodeficient nude mice. The 24th generation HCT116 cells in logarithmic growth phase were digested with pancreatin to prepare a single-cell suspension, and 1×10^7 cells were inoculated subcutaneously in the right armpit of male nude mice about 5 weeks old. After inoculation, cyclophosphamide (100 mg/kg) was injected intraperitoneally for two consecutive days. […] On the 20th day after colon cancer cell HCT116 was implanted subcutaneously, nude mice were divided into 7 groups by a random number table method, including a test drug group, a positive control group and a blank control group. Specifically, group A: the compound A was administrated; Group B: the compound B was administrated; Group C: the compound C was administrated; Group D: the compound D was administrated; Group E: the compound 6-thio-DG was administrated; Group F: the compound PX-12 was administrated; Group G: blank group, without administration of any compound. Except group C with 3 rats and group G with 4 rats, all other 5 groups had 5 rats, they mice were labeled and injected by tail vein once every two days for 24 days, 12 times, with the dose of compound A being 2 mg/kg for the first 8 times and 10 mg/kg for the last 4 times, and the dosages of other drugs being the same molar weights. The tumor volume was calculated by taking the length of the tumor as the longest diameter and the width as the corresponding vertical diameter, and the tumor volume V=(length×width^2) mm^3/2. 48 hours after the last treatment, blood was taken from the eyes, and then the animals were killed. Blood was centrifuged to get the supernatant, and then blood biochemical analysis was performed. Paraffin embedded sections of fixed tissues were stained with HE. The tumor mass in a frozen tissue was sectioned in a frozen state, and then stained by DAPI and TUNEL to judge the apoptosis of the tumor tissue in nude mice.

[2] = test system: human non-small cell lung cancer A549; test: MTT assay, tumor cell growth inhibition, A549; type: cell-based; settings: 48 hours
Source text: (§2) MTT Assay—Inhibitory Effect of 6-dithio-substituted-2′-deoxyguanosine Derivatives on Tumor Cell Growth
(§3) We measured the tumor cell growth inhibitory activity of candidate compounds by MTT assay. Human tumor cells in logarithmic growth phase were digested with 0.25% pancreatin for a certain time, centrifuged, re-suspended and counted with a blood cell counting plate to prepare a cell suspension, and the cell suspension was adjusted to 1.0×10^4-1×10^5 cells/mL. The cell suspension was inoculated into a 96-well culture plate, 100 μL per well, and cultured in an incubator with saturated humidity, 37° C. and 5% CO2 for 24 hours until the cells completely adhered to the wall. The test compound was diluted to the required concentration with a complete medium, the complete medium of the 96-well culture plate inoculated with human tumor cells was sucked out, a medicament-containing medium was added, 100 μL per well, the final concentration of DMSO was less than 0.1%, and the culture plate was put in an incubator for 48 hours. 10 μl of MTT was added to each well of the 96-well plate, and the culture was continued for 4 h. The culture was stopped and the culture solution in the well was carefully sucked off. 150 μL DMSO was added to each well, and shaken at a low speed for 10 min on a shaking table, so that the crystal was fully dissolved. The absorbance of each well was measured at OD 570 nm of an enzyme-linked immunosorbent assay instrument. At the same time, zeroing wells (the culture medium, MTT, dimethyl sulfoxide) and control wells (cells, a drug dissolution medium with the same concentration, a culture solution, MTT, dimethyl sulfoxide) were set up, and the cell growth inhibitory activity was calculated with the corresponding solvents as the control. 3-6 multiple wells in each group were set up with repetition of several times. Cell viability of control=(Adrug group−Azeroing well)/(Acontrol well−Azeroing well)*100%. Drawing was drawn, the data were fitted into a concentration response curve with a variable slope, and IC50 value was calculated from the curve.

[3] = test system: human colon cancer cells HT29; test: MTT assay, tumor cell growth inhibition, HT29; type: cell-based; settings: HT-29, 48 hours
Source text: as §2, §3

[4] = test system: human melanoma cell A375 tumor; test: Human melanoma cell A375 tumor-bearing mouse model, antitumor effect; type: in vivo, nude mice; settings: compound D 10 mg/kg, DTIC 20.4 mg/kg (4 times molar), 6-thio-dG+PX12 at twice the molar amount
Description: (§4) 2) Human Melanoma Cell A375 Tumor-Bearing Mouse Model
(§5) We further studied the inhibitory effect of the compound D on human malignant melanoma by using A375 tumor-bearing mouse model. The method was basically the same as above. Dacarbazine (DTIC) is the first-line drug for melanoma. The designed administration groups were: compound D 10 mg/kg group; 6-thio-dG+PX12 combined drug group (the dose is equivalent to twice the molar amount of the compound D); DTIC 20.4 mg/kg group (the dose is equivalent to 4 times the molar amount of the compound D) and blank solvent group.

[5] = test system: human leukemia cells K562; test: MTT assay, tumor cell growth inhibition, K562; type: cell-based; settings: 48 hours
Source text: as §2, §3

[6] = Blood biochemical analysis and HE staining of tissues in HCT116 tumor-bearing nude mice; type: in vivo; settings: tail vein once every two days, 12 times, blood 48 hours after the last treatment
Description: as §1

[7] = test system: human liver cancer cells HepG2; test: MTT assay, tumor cell growth inhibition, HepG2; type: cell-based; settings: 48 hours
Source text: as §2, §3

[8] = A375 tumor-bearing mouse model, body weight, toxicity and blood biochemical indexes; type: in vivo; settings: compound D 10 mg/kg
Description: as §4, §5

NCM460 = test: MTT assay, cell growth inhibition, NCM460; type: cell-based; settings: Homo sapiens, 48 hours, read-out: Tumor cell growth inhibition IC50, NCM460
Source text: as §2, §3

[9] = test system: human colon cancer cells HCT116; test: MTT assay, tumor cell growth inhibition, HCT116; type: cell-based; settings: HCT-116, 48 hours
Source text: as §2, §3

[10] = test system: human gastric cancer cells BGC; test: MTT assay, tumor cell growth inhibition, BGC; type: cell-based; settings: 48 hours
Source text: as §2, §3

With `CC(C)SSc1nc(N)nc2c1ncn2[C@H]1C[C@H](O)[C@@H](CO)O1` [D, 6-(isopropyldithio)-2′-deoxyguanosine] the “Extent of apoptosis in tumor tissue (TUNEL staining, rank order)” value ([1]; frozen tumor sections, DAPI and TUNEL, G group = blank) was “D group>A group≈B group≈E group (6-thio-dG group)>C group>F group (PX-12 group)>G group (KB group)”, the “Inhibitory effect on the growth of subcutaneous transplanted tumor tissue in nude mice (rank order, from slope of tumor volume)” value ([1]; tail vein once every two days for 24 days, compound A 2 mg/kg first 8 times, 10 mg/kg last 4 times, others equimolar, KB = blank) was “D>B≈A≈6-thio-dG>PX-12>C>KB” and the “Ability to inhibit the growth of transplanted tumor tissue compared with positive controls” value ([1]; tail vein once every two days for 24 days, equimolar doses) was “stronger than that of positive control 6-thio-dG and PX-12”. The IC50 [2] was 31.1 µM, the IC50 [3] was 4.24 µM and the “Antitumor effect (tumor volume) compared with controls” value [4] was “significantly higher than that of DITC”. For the same molecule, the IC50 [5] was 15.7 µM, the Alanine aminotransferase [6] was 28.2 U/L and the Albumin [6] was 25.0 g/L. For the same molecule, the Alkaline phosphatase [6] was 31.5 U/L, the Aspartate aminotransferase [6] was 122.2 U/L and the BUN [6] was 8.80 mmol/L. The Chloride ion [6] was 115.3 mmol/L, the Creatine kinase [6] was 1597 U/L and the Creatinine [6] was -3.0 µmol/L. The Glucose [6] was 3.51 mmol/L, the Potassium ion [6] was 6.43 mmol/L and the Sodium ion [6] was 157.5 mmol/L. It also gave a Total bilirubin [6] of -1.00 µmol/L, a Total cholesterol [6] of 3.21 mmol/L and a Total protein [6] of 54.2 g/L. For the same molecule, the Triglyceride [6] was 0.70 mmol/L, the IC50 [7] was less than 10 µM and the Body weight [8] was “after 13 days of administration, the body weight was significantly higher than that of DITC group, 6-thio-dG and PX-12 combination group”. The “Toxicity compared with 6-thio-dG and PX-12 combination” value ([8]; combination at twice the molar amount) was “lower toxicity than the combined drug group”, the IC50 (NCM460) was greater than 1000 µM and the IC50 [9] was 1.09 µM. It also gave an IC50 [10] of 11.7 µM.
